In publication PMC8629109 (Journal of medicinal chemistry, 2020):
Read-outs that look alike come from different tables or passages of the source. Values belong to the compound of their own block, whether it stands above or below them.

Key:
[1] = Rat liver microsomal stability; format: in vitro ADME; conditions: Sprague-Dawley, liver microsomes, pH 7.4
[2] = Solution stability in aqueous buffers; format: physicochemical
[3] = test system: other mGluR subtypes (mGluR1, mGluR3, mGluR4, mGluR5, mGluR6, mGluR8); test: Selectivity among mGluR subtypes; conditions: versus mGluR2
mGluR2 [4] = biological target: mGluR2 (Rattus norvegicus, UniProt P31421); test: PET imaging and blocking studies in rat brain; format: in vivo, Sprague-Dawley rats; conditions: pretreatment 4 mg/kg i.v. 10 min before [11C]13, 10–30 min time window
Sequence of mGluR2 (Rattus norvegicus, UniProt P31421) (P31421 19-872): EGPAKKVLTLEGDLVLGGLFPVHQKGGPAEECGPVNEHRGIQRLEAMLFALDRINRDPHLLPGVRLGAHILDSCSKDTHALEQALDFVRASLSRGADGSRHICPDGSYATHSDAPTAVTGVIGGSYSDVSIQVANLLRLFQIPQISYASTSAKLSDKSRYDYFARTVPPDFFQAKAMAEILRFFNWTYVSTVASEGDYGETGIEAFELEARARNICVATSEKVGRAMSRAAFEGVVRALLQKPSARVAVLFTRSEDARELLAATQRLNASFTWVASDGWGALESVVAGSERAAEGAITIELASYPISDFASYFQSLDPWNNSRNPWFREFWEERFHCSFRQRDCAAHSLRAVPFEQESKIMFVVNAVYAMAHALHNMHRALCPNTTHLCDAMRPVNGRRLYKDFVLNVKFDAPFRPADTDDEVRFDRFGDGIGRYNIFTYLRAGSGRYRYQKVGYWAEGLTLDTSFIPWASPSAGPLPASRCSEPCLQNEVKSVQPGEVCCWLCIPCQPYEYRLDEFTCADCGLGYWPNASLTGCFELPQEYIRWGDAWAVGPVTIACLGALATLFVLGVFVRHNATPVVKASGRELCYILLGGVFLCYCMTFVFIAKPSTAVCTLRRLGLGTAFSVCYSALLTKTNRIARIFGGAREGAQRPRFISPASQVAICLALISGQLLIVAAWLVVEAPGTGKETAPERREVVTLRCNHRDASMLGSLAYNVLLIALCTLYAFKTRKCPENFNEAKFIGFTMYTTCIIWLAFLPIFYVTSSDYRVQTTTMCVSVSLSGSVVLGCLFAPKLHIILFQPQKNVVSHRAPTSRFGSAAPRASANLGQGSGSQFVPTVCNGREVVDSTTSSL

[5] = Plasma stability in rat serum; format: in vitro ADME; conditions: 37 °C
mGluR2 [6] = biological target: T1, mGluR2 (Homo sapiens, UniProt Q14416); test: Competitive binding assay with [3H]JNJ-46281222 in mGluR2 transfected CHO cells
T1 sequence (Q14416 19-872): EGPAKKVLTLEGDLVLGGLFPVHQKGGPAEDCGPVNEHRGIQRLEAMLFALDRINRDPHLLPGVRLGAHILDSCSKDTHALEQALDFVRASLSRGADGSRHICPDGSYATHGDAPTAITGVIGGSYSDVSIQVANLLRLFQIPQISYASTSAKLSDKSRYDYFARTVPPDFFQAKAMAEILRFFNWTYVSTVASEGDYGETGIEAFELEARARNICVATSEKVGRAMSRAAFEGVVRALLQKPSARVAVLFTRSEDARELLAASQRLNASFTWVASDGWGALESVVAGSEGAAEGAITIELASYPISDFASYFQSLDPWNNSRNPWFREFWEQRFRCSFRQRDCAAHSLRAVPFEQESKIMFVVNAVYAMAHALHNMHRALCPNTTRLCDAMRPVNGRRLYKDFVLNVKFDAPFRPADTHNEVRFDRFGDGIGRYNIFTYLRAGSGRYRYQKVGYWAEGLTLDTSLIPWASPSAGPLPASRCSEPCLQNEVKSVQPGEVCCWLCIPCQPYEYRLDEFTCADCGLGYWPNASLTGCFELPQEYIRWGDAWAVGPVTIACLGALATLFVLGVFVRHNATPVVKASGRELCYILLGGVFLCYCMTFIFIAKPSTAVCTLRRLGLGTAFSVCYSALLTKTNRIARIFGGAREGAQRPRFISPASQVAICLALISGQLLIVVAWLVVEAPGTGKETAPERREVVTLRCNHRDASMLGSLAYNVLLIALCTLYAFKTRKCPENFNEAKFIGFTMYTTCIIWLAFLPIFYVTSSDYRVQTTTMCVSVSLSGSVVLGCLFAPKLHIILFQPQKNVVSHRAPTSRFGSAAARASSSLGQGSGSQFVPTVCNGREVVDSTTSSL

recombinant human P-gp = recombinant human P-gp (Homo sapiens, UniProt P08183); test: Pgp-Glo assay, P-gp ATPase activity; conditions: compared with basal and verapamil activities; test compound 200 μM
Sequence of recombinant human P-gp (P08183 whole entry): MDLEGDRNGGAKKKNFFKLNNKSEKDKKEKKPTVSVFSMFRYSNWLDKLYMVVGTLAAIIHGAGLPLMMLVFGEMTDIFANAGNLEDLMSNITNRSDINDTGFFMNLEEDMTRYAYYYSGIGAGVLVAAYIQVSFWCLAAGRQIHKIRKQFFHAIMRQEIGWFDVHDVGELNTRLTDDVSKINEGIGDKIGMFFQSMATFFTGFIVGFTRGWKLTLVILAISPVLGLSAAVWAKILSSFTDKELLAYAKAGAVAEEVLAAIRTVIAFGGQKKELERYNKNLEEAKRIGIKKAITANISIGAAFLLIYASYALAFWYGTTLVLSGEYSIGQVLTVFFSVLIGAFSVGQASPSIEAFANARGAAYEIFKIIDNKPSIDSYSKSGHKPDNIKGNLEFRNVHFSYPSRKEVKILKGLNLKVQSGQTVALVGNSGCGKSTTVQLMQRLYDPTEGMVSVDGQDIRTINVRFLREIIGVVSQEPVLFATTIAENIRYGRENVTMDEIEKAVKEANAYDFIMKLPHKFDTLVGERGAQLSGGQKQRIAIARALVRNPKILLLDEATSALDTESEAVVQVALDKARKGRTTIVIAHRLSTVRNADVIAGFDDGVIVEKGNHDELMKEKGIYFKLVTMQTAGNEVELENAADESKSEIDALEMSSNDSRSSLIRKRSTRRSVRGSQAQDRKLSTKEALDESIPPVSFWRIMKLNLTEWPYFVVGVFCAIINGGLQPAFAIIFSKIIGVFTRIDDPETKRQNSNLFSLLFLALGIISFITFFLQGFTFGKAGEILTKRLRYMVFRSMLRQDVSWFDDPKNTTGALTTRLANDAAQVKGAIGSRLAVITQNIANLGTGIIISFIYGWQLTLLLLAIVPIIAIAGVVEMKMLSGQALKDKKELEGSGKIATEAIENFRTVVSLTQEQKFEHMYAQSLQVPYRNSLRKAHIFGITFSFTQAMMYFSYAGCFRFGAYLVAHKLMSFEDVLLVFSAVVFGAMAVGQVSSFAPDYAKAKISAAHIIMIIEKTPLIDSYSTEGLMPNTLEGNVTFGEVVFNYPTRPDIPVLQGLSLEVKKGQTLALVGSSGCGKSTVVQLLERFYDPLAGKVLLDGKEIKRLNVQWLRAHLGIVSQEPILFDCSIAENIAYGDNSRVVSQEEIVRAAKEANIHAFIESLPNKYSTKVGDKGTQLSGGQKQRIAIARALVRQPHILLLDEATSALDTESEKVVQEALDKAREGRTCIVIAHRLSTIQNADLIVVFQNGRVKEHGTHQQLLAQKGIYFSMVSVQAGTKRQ

mGluR2 [7] = biological target: T1, mGluR2; test: GloSensor cAMP biosensor assay, mGluR2 PAM activity; conditions: read-out: EC50, mGluR2 PAM activity; in the presence of EC20 amount of L-glutamate; intracellular cAMP
[8] = PAMPA high / low permeability standard, value as stated, ref not given; cited from earlier work

half-life at 3 μM [1]: 1.24 h
The solution stability: the intact ± SEM at 120 min ([2]; pH = 5.0, 37 °C): 95.3 ± 0.3%
The solution stability: the intact ± SEM at 120 min ([2]; pH = 7.4, 37 °C): 94.5 ± 0.4%
The solution stability: the intact ± SEM at 120 min ([2]; pH = 9.4, 37 °C): 96.1 ± 0.7%
enhancement of radioactivity uptake in the different brain areas (mGluR2 [4]): 33–49%
The plasma stability: the intact ± SEM at 120 min [5]: 96.6 ± 2.1%
IC50 (mGluR2 [6]): 0.0076 ± 0.0009 µM
P-gp ATPase activity (recombinant human P-gp): moderate
P-gp substrate assessment (recombinant human P-gp): not a P-gp substrate
Compound: COc1cc(C(F)(F)F)ccc1C1CCN(Cc2nc3ncccc3n2C)CC1 [Compound 13, 2-((4-(2-Methoxy-4-(trifluoromethyl)phenyl)piperidin-1-yl)methyl)-1-methyl-1H-imidazo[4,5-b]pyridine]
selectivity against other mGluR subtypes [3]: > 100 fold

half-life at 3 μM [1]: 1.23 h
microsomal CLint at 3 μM [1]: 18.1 µL/min/mg
The plasma stability: the intact ± SEM at 120 min [5]: 89.2 ± 0.6%
IC50 (mGluR2 [6]): 0.0105 ± 0.0005 µM
Compound: COc1cc(C(F)(F)F)ccc1C1CCN(Cc2nc3nccc4c3n2CCC4)CC1 [Compound 14, 2-((4-(2-Methoxy-4-(trifluoromethyl)phenyl)piperidin-1-yl)methyl)-5,6-dihydro-4H-imidazo [4,5,1-ij][1,7]naphthyridine]

EC50 (mGluR2 [7]): 7.8 µM
IC50 (mGluR2 [6]; read-out: IC50 ± SEM, mGluR2 transfected CHO cells, 10 nM [3H]JNJ-46281222): 0.0105 ± 0.0079 µM
Compound: COc1cc(C(F)(F)F)ccc1OC[C@@H]1[C@H]2CN(Cc3nc4ncccc4n3C)C[C@@H]12 [Compound 15, 2-(((1R,5S,6R)-6-((2-methoxy-4-(trifluoromethyl)phenoxy)methyl)-3-azabicyclo[3.1.0]hexan-3-yl)methyl)-1-methyl-1H-imidazo[4,5-b]pyridine]

decrease of [11C]13 uptake in different brain areas (mGluR2 [4]): 28–37%
Compound: Fc1ccc(N2CCN(Cc3ccn4c(CC5CC5)nnc4c3C(F)(F)F)CC2)c(F)c1 [Compound 17, 3-(Cyclopropylmethyl)-7-((4-(2,4-difluorophenyl)piperazin-1-yl)methyl)-8-(trifluoromethyl)[1,2,4]triazolo[4,3-a]pyridine, reference compound]

The plasma stability: the intact ± SEM at 120 min [5]: 43.2 ± 0.8%
Compound: COc1ccc([C@@H]2Sc3ccccc3N(CCN(C)C)C(=O)[C@@H]2OC(C)=O)cc1 [Diltiazem, reference compound]

half-life at 3 μM [1]: 0.07 h
microsomal CLint at 3 μM [1]: 317 µL/min/mg
Compound: COc1cc(NC(=O)c2ccccn2)ccc1Cl [ML128, reference compound]

Compound: Cn1c(=O)c2[nH]cnc2n(C)c1=O [theophylline]
Pe of quality control standard [8]: 0.12 ×10⁻⁶ cm/s
